Data: patent EP2140864A2 (H. Lundbeck A/S, priority 2001, dated 2002)

Key:
[1] = biological target: T1, human α1D adrenergic receptor (Homo sapiens, UniProt P25100); assay: Radioligand binding, α1D adrenergic receptor; conditions: for Ki: Table 9, read-out: hα1D Ki; for selectivity ratio hα1D: Table 10, Ki hα1D divided by Ki hGAL3
T1 construct: expressed in transfected cells
T1 sequence (P25100 1-572): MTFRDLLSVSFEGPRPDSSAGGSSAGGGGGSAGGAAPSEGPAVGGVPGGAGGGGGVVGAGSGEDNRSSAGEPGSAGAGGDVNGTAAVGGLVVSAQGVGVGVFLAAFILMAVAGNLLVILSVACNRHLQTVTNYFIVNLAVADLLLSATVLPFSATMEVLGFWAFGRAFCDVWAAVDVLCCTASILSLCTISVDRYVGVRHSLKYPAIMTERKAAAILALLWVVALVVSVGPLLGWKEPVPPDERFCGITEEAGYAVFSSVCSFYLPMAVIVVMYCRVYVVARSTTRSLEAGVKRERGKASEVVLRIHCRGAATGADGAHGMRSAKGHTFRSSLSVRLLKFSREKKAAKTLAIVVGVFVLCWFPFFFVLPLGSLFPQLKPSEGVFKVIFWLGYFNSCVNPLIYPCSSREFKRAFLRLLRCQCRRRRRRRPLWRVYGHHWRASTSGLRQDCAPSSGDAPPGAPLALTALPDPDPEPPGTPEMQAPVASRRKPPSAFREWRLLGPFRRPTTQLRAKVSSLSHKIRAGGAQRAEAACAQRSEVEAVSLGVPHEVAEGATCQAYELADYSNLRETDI
Text: (§1) Other receptors: Cell membranes expressing human dopamine D1, D2, D4 and rat D3 receptors were purchased through BioSignal, Inc. (Montreal, Canada). Binding assays using the histamine H1 receptor; dopamine receptors; and α1A, α1E, and α2 adrenergic receptors may be carried out according to the procedures described in U.S. Patent No. 5,780,485, the disclosure of which is hereby incorporated by reference in its entirety into this application. Binding assays using the dopamine D5 receptor may be carried out according to the procedures described in U.S. Patent No. 5,882,855, the disclosure of which is hereby incorporated by reference in its entirety into this application. Binding assays for the human α1D adrenergic receptor may be carried out according to the procedures described in U.S. Patent No. 6,156,518, the disclosure of which is hereby incorporated by reference in its entirety into this application.
(§2) Binding data were analyzed using nonlinear regression and statistical techniques available in the GraphPAD Prism package (San Diego, CA). Enzymatic assay data were derived from a standard curve of reference compound data.

human α2B adrenoceptor = biological target: T2, human α2B adrenoceptor (Homo sapiens, UniProt P18089); assay: Radioligand binding, α2B adrenergic receptor; conditions: for Ki: Table 9, read-out: hα2B Ki; for selectivity ratio hα2B: Table 10, Ki hα2B divided by Ki hGAL3
T2 construct: expressed in transfected cells
T2 sequence (P18089 1-450): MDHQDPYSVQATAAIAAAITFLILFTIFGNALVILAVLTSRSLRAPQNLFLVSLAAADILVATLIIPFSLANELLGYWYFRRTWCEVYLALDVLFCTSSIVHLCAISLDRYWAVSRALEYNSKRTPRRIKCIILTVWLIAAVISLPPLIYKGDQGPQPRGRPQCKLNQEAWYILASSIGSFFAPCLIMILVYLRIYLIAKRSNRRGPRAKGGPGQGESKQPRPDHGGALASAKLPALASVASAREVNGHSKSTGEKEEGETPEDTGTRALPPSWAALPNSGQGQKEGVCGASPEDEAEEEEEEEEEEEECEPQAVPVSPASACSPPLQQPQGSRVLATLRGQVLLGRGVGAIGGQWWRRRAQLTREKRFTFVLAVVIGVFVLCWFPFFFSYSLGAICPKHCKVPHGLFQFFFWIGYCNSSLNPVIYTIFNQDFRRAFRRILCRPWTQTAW
Text: as §1, §2

dopamine D5 receptor = biological target: T3, dopamine D5 receptor (Homo sapiens, UniProt P21918); assay: Radioligand binding, dopamine D5 receptor; conditions: for Ki: Table 9, read-out: hD5 Ki; for selectivity ratio hD5: Table 10, Ki hD5 divided by Ki hGAL3
T3 construct: expressed in transfected cells
Text: as §1, §2

human 5HT1A receptor = biological target: T4, human 5HT1A receptor (Homo sapiens, UniProt P08908); assay: Radioligand binding, 5-HT1A receptor (3H-8-OH-DPAT); conditions: for Ki: Table 7, read-out: h5HT1A Ki; for selectivity ratio h5HT1A: Table 8, Ki h5HT1A divided by Ki hGAL3
T4 construct: expressed in transfected cells; host or cells: COS-7 cells, transient (pCEXV-3 vector)
T4 sequence (P08908 1-422): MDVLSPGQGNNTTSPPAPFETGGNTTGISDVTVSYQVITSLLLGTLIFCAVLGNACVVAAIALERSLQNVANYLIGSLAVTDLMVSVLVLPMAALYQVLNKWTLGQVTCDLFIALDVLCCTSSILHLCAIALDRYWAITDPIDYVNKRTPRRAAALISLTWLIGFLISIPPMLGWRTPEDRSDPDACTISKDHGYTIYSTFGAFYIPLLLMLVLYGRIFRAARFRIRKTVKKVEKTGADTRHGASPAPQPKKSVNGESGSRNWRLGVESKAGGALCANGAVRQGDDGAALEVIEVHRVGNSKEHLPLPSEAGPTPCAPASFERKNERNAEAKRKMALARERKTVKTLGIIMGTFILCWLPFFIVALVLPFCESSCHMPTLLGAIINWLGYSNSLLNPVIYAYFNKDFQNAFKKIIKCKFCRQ
Description: 5-HT1A Receptor: The cDNA corresponding to the 5-HT1A receptor open reading frames and variable non-coding 5'-and 3'-regions, was cloned into the eukaryotic expression vector pCEXV-3. These constructs were transfected transiently into COS-7 cells by the DEAE-dextran method (Cullen, 1987), and harvested after 72 hours. Radioligand binding assays were performed as described above for the 5-HT2A receptor, except that ^3H-8-OH-DPAT was used as the radioligand and nonspecific binding was determined by the addition of 10 µM mianserin.
as §2

human 5HT4 receptor = biological target: T5, human 5HT4 receptor (Homo sapiens, UniProt Q13639); assay: Radioligand binding, 5-HT4 receptor; conditions: for Ki: Table 7, read-out: h5HT4 Ki; for selectivity ratio h5HT4: Table 8, Ki h5HT4 divided by Ki hGAL3
T5 construct: expressed in transfected cells
Description: Other 5-HT Receptors: Other serotonin receptor binding assays were performed according to published methods: rat 5HT2C receptor (Julius et al., 1988); and 5-HT6 (Monsma, et al., 1993). The binding assays using the 5-HT4 receptor were performed according to the procedures described in U.S. Patent No. 5,766,879, the disclosure of which is hereby incorporated by reference in its entirety into this application.
as §2

human 5HT1D = biological target: T6, human 5HT1D (Homo sapiens, UniProt P28221); assay: Radioligand binding, 5HT1D receptor ([3H]-serotonin); conditions: for Ki: Table 7, read-out: h5HT1D Ki; for selectivity ratio h5HT1D: Table 8, Ki h5HT1D divided by Ki hGAL3
T6 construct: expressed in transfected cells
Description: Human 5HT1B, 5HT1D, 5HT1E, 5HT1F, and 5HT7 Receptors: The cell lysates of LM(tk-) clonal cell line stably transfected with the genes encoding each of these 5HT receptor-subtypes were prepared as described above. Cell membranes were suspended in 50mM Tris-HCl buffer (pH 7.4 at 37°C) containing 10 mM MgCl2, 0.2 mM EDTA, 10 µM pargyline, and 0.1% ascorbate. […] Nonspecific binding was determined in the presence of 10 µM serotonin. The bound radioligand was separated by filtration through GF/B filters using a cell harvester.
as §2

T6 sequence (P28221 whole entry): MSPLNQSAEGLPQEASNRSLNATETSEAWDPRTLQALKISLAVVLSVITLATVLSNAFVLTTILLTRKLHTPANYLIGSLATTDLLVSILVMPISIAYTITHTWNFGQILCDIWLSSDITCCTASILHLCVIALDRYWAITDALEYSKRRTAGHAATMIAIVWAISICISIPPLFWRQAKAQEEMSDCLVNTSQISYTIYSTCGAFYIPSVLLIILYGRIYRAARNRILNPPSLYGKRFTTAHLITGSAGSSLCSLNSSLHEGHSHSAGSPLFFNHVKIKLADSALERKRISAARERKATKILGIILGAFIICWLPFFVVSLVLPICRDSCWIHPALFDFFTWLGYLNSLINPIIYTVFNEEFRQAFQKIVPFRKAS
T3 sequence (P21918 whole entry): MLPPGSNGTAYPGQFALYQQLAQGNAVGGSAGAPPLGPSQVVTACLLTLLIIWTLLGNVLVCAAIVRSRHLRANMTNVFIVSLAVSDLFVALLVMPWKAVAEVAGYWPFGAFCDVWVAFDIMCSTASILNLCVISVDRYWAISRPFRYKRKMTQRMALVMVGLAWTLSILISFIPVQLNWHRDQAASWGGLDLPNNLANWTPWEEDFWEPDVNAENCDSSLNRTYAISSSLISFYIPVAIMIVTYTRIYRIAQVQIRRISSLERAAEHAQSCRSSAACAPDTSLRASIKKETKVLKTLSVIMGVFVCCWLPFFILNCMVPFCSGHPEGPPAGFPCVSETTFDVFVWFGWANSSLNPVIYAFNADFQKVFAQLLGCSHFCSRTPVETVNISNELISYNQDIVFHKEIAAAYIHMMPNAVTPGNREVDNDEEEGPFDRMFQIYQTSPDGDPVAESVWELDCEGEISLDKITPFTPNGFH
T5 sequence (Q13639 whole entry): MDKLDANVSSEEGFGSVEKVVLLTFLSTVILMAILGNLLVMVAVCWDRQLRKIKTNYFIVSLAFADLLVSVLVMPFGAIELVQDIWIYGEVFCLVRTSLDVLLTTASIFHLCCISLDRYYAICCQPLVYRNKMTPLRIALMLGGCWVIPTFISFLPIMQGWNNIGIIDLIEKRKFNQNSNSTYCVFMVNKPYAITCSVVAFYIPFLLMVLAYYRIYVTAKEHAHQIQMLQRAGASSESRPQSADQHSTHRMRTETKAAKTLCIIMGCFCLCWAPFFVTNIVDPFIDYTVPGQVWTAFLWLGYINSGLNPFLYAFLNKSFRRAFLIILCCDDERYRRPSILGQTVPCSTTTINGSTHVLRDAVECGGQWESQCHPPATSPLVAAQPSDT

Row | SMILES | Ki [1] | selectivity ratio hα1D [1] | Ki (human α2B adrenoceptor) | selectivity ratio hα2B (human α2B adrenoceptor) | Ki (dopamine D5 receptor) | selectivity ratio hD5 (dopamine D5 receptor) | Ki (human 5HT1A receptor) | selectivity ratio h5HT1A (human 5HT1A receptor) | Ki (human 5HT4 receptor) | selectivity ratio h5HT4 (human 5HT4 receptor) | Ki (human 5HT1D) | selectivity ratio h5HT1D (human 5HT1D)
1 | O=C1C(=Nc2ccc(Cl)cc2)c2ccccc2N1c1ccccc1 [Example 97, 3-[(4-CHLOROPHENYL)IMINO]-1-PHENYL-1,3-DIHYDRO-2H-INDOL-2-ONE] | 6.45 µM | >100 | > 50 µM | >100 | 10.1 µM | >100 | > 50 µM | >100 | 2.55 µM | >30 | 14.2 µM | >100
2 | O=C1C(=Nc2ccc(Br)cc2)c2ccccc2N1c1ccccc1 [Example 98, 3-[(4-BROMOPHENYL)IMINO]-1-PHENYL-1,3-DIHYDRO-2H-INDOL-2-ONE] | 1.89 µM | >30 | > 50 µM | >100 | 1.2 µM | >30 | 24.6 µM | >100 | 1.21 µM | >30 | 9.12 µM | >100
